# Assay results from patent US20220024921A1, “1,3,4-OXADIAZOLONE COMPOUND AND PHARMACEUTICAL” (NIPPON SHINYAKU CO., LTD., priority 2018, published 2022).
# Where a name gives a salt, the structure may show the parent alone.
# Assays:
# [1] = molecular target: T1, PIM1 serine/threonine kinase (Homo sapiens, UniProt P11309); assay: PIM1 serine/threonine kinase inhibitory effect; assay type: biochemical; conditions: PIM1 serine/threonine kinase activity; ATP 40 μM; 30° C., 30 minutes
# T1 construct: purchased Carna Bioscience, Inc
# Summary of the method: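 Compounds were tested in duplicate from 0.01 to 10000 nM final against PIM1 kinase (0.15 μg/ml). The reaction ran for 30 minutes at 30° C with 40 μM ATP and 0.5 μM biotin-tagged substrate at pH 7.0. Phosphorylation was read by time-resolved FRET (OD665/OD620) after 1 h; IC50 by non-linear fit.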
# [2] = molecular target: PIM1 transgenic cells (Ba/F3) (Homo sapiens, UniProt P11309); assay: Proliferation inhibitory effect on PIM1 transgenic cells; assay type: cell-based, mouse; conditions: proliferation inhibition, 72 hours, Cell Counting Kit-8, read-out: PIM1 IC50
# Summary of the method: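 Mouse Ba/F3 pro-B cells were retrovirally transduced with human PIM1 so that their proliferation depends on PIM1. Cells were treated with compound at 1–10000 nM final for 72 h, then read by CCK-8 (OD450−OD650). Inhibition was set against DMSO (0%) and no-cell blank (100%), and IC50 was obtained by two-parameter logistic regression.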
# Chain of PIM1 transgenic cells (Ba/F3) (P11309 whole entry, stated change not applied): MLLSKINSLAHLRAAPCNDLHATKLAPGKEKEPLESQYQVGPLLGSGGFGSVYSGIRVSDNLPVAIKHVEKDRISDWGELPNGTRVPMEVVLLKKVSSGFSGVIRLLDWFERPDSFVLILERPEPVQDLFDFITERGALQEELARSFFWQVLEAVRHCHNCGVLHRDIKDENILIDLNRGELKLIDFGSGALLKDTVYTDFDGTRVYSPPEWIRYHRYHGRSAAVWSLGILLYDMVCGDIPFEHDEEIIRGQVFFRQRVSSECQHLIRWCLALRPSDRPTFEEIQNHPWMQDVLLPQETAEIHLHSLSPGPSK
# T1 sequence (P11309 whole entry): as the sequence (P11309 whole entry, stated change not applied) above
SMILES,IC50 [1] [nM],GI50 [2] [nM]
"C[C@@H]1CNCC[C@@H]1[C@H](C)Nc1cc(-c2n[nH]c(=O)o2)ccc1OC(F)(F)F [Example 218, 5-[3-({(1S)-1-[(3S,4S)-3-methylpiperidin-4-yl]ethyl}amino)-4-(trifluoromethoxy)phenyl]-1,3,4-oxadiazol-2(3H)-one]",2.9,27
"C[C@H](Nc1cc(-c2n[nH]c(=O)o2)cc(F)c1Br)C1CCNCC1 [Example 83, 5-(4-bromo-3-fluoro-5-{[(1S)-1-(piperidin-4-yl)ethyl]amino}phenyl)-1,3,4-oxadiazol-2(3H)-one hydrochloride]",1,75
"C[C@H](Nc1cc(-c2n[nH]c(=O)o2)ccc1C(F)(F)F)C12CCC(N)(CC1)C2 [Example 187, 5-[3-{[(1S)-1-(4-aminobicyclo[2.2.1]heptan-1-yl)ethyl]amino}-4-(trifluoromethyl)phenyl]-1,3,4-oxadiazol-2(3H)-one hydrochloride]",8.7,110
"CC(Oc1cc(-c2n[nH]c(=O)o2)ccc1Br)[C@H]1CC[C@H](N)CC1 (stereo partly shown) [Example 237, 5-(3-{1-[(1r,4r)-4-aminocyclohexyl]ethoxy}-4-bromophenyl)-1,3,4-oxadiazol-2(3H)-one]",5.3,90
"CO/N=C1\CCN([C@@H](C)[C@H]2CCNC[C@H]2C)c2cc(-c3n[nH]c(=O)o3)cc(F)c21 [Example 246, 5-[(4E)-5-fluoro-4-(methoxyimino)-1-{(1S)-1-[(3S,4S)-3-methylpiperidin-4-yl]ethyl}-1,2,3,4-tetrahydroquinolin-7-yl]-1,3,4-oxadiazol-2(3H)-one hydrochloride]",1.9,4900
"C[C@H](Nc1cc(-c2n[nH]c(=O)o2)cc2[nH]ncc12)C1CCNCC1 [Example 100, 5-(4-{[(1S)-1-(piperidin-4-yl)ethyl]amino}-1H-indazol-6-yl)-1,3,4-oxadiazol-2(3H)-one dihydrochloride]",1.9,260
"C[C@H](Nc1cc(-c2n[nH]c(=O)o2)cc(F)c1F)C1CCNCC1 [Example 89, 5-(3,4-difluoro-5-{[(1S)-1-(piperidin-4-yl)ethyl]amino}phenyl)-1,3,4-oxadiazol-2(3H)-one]",5.4,250
"N[C@H]1CC[C@H](Nc2cc(-c3n[nH]c(=O)o3)ccc2Br)CC1 [Example 35, 5-(3-{[(1r,4r)-4-aminocyclohexyl]amino}-4-bromophenyl)-1,3,4-oxadiazol-2(3H)-one hydrochloride]",4.9,510
"N[C@H]1CC[C@H](COc2cc(-c3n[nH]c(=O)o3)ccc2C(F)(F)F)CC1 [Example 240, 5-[3-{[(1r,4r)-4-aminocyclohexyl]methoxy}-4-(trifluoromethyl)phenyl]-1,3,4-oxadiazol-2(3H)-one]",1.9,87
"N[C@H]1CO[C@H](C2CC2c2cc(-c3n[nH]c(=O)o3)ccc2C(F)(F)F)OC1 (stereo partly shown) [Example 161, 5-[3-{2-[(2r,5r)-5-amino-1,3-dioxan-2-yl]cyclopropyl}-4-(trifluoromethyl)phenyl]-1,3,4-oxadiazol-2(3H)-one hydrochloride]",29,1000
"CC(C)Oc1c(Cl)cc(-c2n[nH]c(=O)o2)cc1N[C@@H](C)C1CCNCC1 [Example 103, 5-(3-chloro-5-{[(1S)-1-(piperidin-4-yl)ethyl]amino}-4-[(propan-2-yl)oxy]phenyl)-1,3,4-oxadiazol-2(3H)-one hydrochloride]",5,120
"Cc1c(Cl)cc(-c2n[nH]c(=O)o2)cc1N[C@@H](C)C1CCNCC1 [Example 98, 5-(3-chloro-4-methyl-5-{[(1S)-1-(piperidin-4-yl)ethyl]amino}phenyl)-1,3,4-oxadiazol-2(3H)-one dihydrochloride]",2,79
"C[C@H](Nc1cc(-c2n[nH]c(=O)o2)cc(F)c1Cl)C1CCNCC1 [Example 76, 5-(4-chloro-3-fluoro-5-{[(1S)-1-(piperidin-4-yl)ethyl]amino}phenyl)-1,3,4-oxadiazol-2(3H)-one hydrochloride]",1.9,31
"N[C@H]1CC[C@H](CN2CCCc3ccc(-c4n[nH]c(=O)o4)cc32)CC1 [Example 244, 5-(1-{[(1r,4r)-4-aminocyclohexyl]methyl}-1,2,3,4-tetrahydroquinolin-7-yl)-1,3,4-oxadiazol-2(3H)-one]",11,140
"N[C@H]1CC[C@H](Nc2cc(-c3n[nH]c(=O)o3)cc(F)c2Cl)CC1 [Example 40, 5-(3-{[(1r,4r)-4-aminocyclohexyl]amino}-4-chloro-5-fluorophenyl)-1,3,4-oxadiazol-2(3H)-one hydrochloride]",6.2,440
"NCCC1CCCN(c2cc(-c3n[nH]c(=O)o3)ccc2C(F)(F)F)C1 (stereo not shown) [Example 11, 5-{3-[3-(2-aminoethyl)piperidin-1-yl]-4-(trifluoromethyl)phenyl}-1,3,4-oxadiazol-2(3H)-one hydrochloride]",13,330
"O=c1[nH]nc(-c2cc(Br)c3cnn(CC4CCNCC4)c3c2)o1 [Example 124, 5-{4-bromo-1-[(piperidin-4-yl)methyl]-1H-indazol-6-yl}-1,3,4-oxadiazol-2(3H)-one hydrochloride]",26,4100
"O=c1[nH]nc(-c2ccc(C(F)(F)F)c(N3CCC4(CCNCC4)CC3)c2)o1 [Example 15, 5-[3-(3,9-diazaspiro[5.5]undecan-3-yl)-4-(trifluoromethyl)phenyl]-1,3,4-oxadiazol-2(3H)-one hydrochloride]",15,600
"C[C@@H](CN)Oc1ccc(-c2cc(-c3n[nH]c(=O)o3)ccc2C(F)(F)F)cc1 [Example 24, 5-[4′-{[(2S)-1-aminopropan-2-yl]oxy}-6-(trifluoromethyl)[1,1′-biphenyl]-3-yl]-1,3,4-oxadiazol-2(3H)-one hydrochloride]",39,870
"C[C@@H]1C[C@H]([C@H](C)Nc2cc(-c3n[nH]c(=O)o3)cc(F)c2OC(F)F)CCN1 [Example 216, 5-[4-(difluoromethoxy)-3-fluoro-5-({(1S)-1-[(2R,4R)-2-methylpiperidin-4-yl]ethyl}amino)phenyl]-1,3,4-oxadiazol-2(3H)-one]",3.5,45

# More lines, now with the values ahead:
IC50 [1] [nM],GI50 [2] [nM],SMILES
12,89,"O=c1[nH]nc(-c2ccc(C(F)(F)F)c(N[C@H](C3CCNCC3)C(F)(F)F)c2)o1 [Example 146, 5-[4-(trifluoromethyl)-3-{[(1R)-2,2,2-trifluoro-1-(piperidin-4-yl)ethyl]amino}phenyl]-1,3,4-oxadiazol-2(3H)-one hydrochloride]"
6.5,220,"CCC1(CNc2cc(-c3n[nH]c(=O)o3)ccc2C(F)(F)F)CCNCC1 [Example 122, 5-[3-{[(4-ethylpiperidin-4-yl)methyl]amino}-4-(trifluoromethyl)phenyl]-1,3,4-oxadiazol-2(3H)-one hydrochloride]"
28,480,"O=c1[nH]nc(-c2ccc(C(F)(F)F)c(NCC3(F)CCCNC3)c2)o1 (stereo not shown) [Example 109, 5-[3-{[(3-fluoropiperidin-3-yl)methyl]amino}-4-(trifluoromethyl)phenyl]-1,3,4-oxadiazol-2(3H)-one hydrochloride]"
4.2,1700,"CC1(CCNc2cc(-c3n[nH]c(=O)o3)ccc2C(F)(F)F)CCNCC1 [Example 70, 5-[3-{[2-(4-methylpiperidin-4-yl)ethyl]amino}-4-(trifluoromethyl)phenyl]-1,3,4-oxadiazol-2(3H)-one hydrochloride]"
7.1,250,"C[C@H]1CNCC[C@H]1CNc1cc(-c2n[nH]c(=O)o2)ccc1C(F)(F)F [Example 141, 5-[3-({[(3R,4R)-3-methylpiperidin-4-yl]methyl}amino)-4-(trifluoromethyl)phenyl]-1,3,4-oxadiazol-2(3H)-one hydrochloride]"
7,200,"CCC(Nc1cc(-c2n[nH]c(=O)o2)ccc1C(F)(F)F)C1CCNCC1 (stereo not shown) [Example 56, 5-[3-{[1-(piperidin-4-yl)propyl]amino}-4-(trifluoromethyl)phenyl]-1,3,4-oxadiazol-2(3H)-one hydrochloride]"
4.2,330,"NCC[C@H]1CC[C@H](Nc2cc(-c3n[nH]c(=O)o3)ccc2C(F)(F)F)CC1 [Example 44, 5-[3-{[(1r,4r)-4-(2-aminoethyl)cyclohexyl]amino}-4-(trifluoromethyl)phenyl]-1,3,4-oxadiazol-2(3H)-one hydrochloride]"
6.4,140,"C[C@@H](Nc1cc(-c2n[nH]c(=O)o2)ccc1C(F)(F)F)[C@H]1CC[C@H](N)CC1 [Example 111, 5-[3-({(1R)-1-[(1r,4R)-4-aminocyclohexyl]ethyl}amino)-4-(trifluoromethyl)phenyl]-1,3,4-oxadiazol-2(3H)-one hydrochloride]"
3.9,110,"C[C@H](Nc1cc(-c2n[nH]c(=O)o2)ccc1C(F)(F)F)[C@H]1CC[C@@H](N)C1 [Example 199, 5-[3-({(1S)-1-[(1S,3R)-3-aminocyclopentyl]ethyl}amino)-4-(trifluoromethyl)phenyl]-1,3,4-oxadiazol-2(3H)-one hydrochloride]"
